The record followed here is patent US9856216B2, “Compounds as TNIK, IKKε and TBK1 inhibitors and pharmaceutical composition comprising same” (GREEN CROSS CORPORATION, priority 2015, dated 2018).

SMILES strings stand for the structures.

T1 sequence (Q9UKE5 1-367 limits assumed): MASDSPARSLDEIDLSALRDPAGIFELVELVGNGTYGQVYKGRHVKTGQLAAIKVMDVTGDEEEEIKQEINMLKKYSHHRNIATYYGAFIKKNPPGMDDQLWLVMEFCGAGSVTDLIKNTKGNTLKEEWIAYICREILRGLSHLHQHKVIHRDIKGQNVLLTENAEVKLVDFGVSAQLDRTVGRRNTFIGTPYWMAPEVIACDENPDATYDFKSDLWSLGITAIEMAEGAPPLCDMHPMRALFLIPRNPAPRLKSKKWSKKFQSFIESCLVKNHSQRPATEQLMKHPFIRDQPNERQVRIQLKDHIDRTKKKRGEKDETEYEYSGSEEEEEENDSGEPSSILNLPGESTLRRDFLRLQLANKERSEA

One assay addresses T1, TNIK (Homo sapiens, UniProt Q9UKE5).
T1 construct: purchased Promega V4158
The assay is described as follows: ADP-Glo Kinase Assay, inhibition activity on TNIK.
Details: not given
Type of assay: biochemical. The protocol: The inhibition activities on TNIK, IKKε and TBK1 were measured by a luminometer, TNIK/IKKε/TBK1 Kinase Enzyme System (Promega, Ca# V4158; Invitrogen, PR8031B, Promega, Ca# V3991) and ADP-Glo Kinase Assay using ADP-Glo™ Kinase Analysis Kit (Promega, Ca# V9101) and a kinase reaction buffer [40 mM Tris(pH 7.5), 20 mM MgCl2, 0.1 mg/mL BSA] in accordance with the manufacturer's protocol.
As to `O=C(Nc1ccc(Nc2ccccn2)c2c1C(=O)NC2)c1ccc(F)cc1` [Example 428, 4-Fluoro-N-(3-oxo-7-(pyridin-2-ylamino)isoindolin-4-yl) benzamide], the “TNIK (μM)” value is given as “Insoluble”.

Still in this assay, the particulars now being: read-out: TNIK.
As for `O=C(Nc1ccc(Nc2cccnc2)c2c1C(=O)NC2)c1ccc(F)cc1` [Example 427, 4-Fluoro-N-(3-oxo-7-(pyridin-3-ylamino)isoindolin-4-yl) benzamide], the IC50 stood at 620 nM.
The same measure, in the same setting: then `O=C(Nc1ccc(Nc2cnccn2)c2c1C(=O)NC2)c1ccc(F)cc1` [Example 429, 4-Fluoro-N-(3-oxo-7-(pyrazin-2-ylamino)isoindolin-4-yl) benzamide], with 530 nM; and `Cn1cc(Nc2ccc(NC(=O)c3ccc(F)cc3)c3c2CNC3=O)cn1` [Example 430], with 6470 nM.
In the case of `COc1cccc(Nc2ccc(NC(=O)c3ccccc3)c3c2CNC3=O)c1` [Example 431, N-(7-((3-methoxyphenyl)amino)-3-oxoisoindolin-4-yl) benzamide], the IC50 was 940 nM.
On the same count and under the same terms, then `COc1ccccc1C(=O)Nc1ccc(Nc2ccccc2)c2c1C(=O)NC2` [Example 432, 2-Methoxy-N-(3-oxo-7-(phenylamino)isoindolin-4-yl) benzamide], with 12200 nM; and `COc1ccc(C(=O)Nc2ccc(Nc3ccccc3)c3c2C(=O)NC3)cc1` [Example 433, 4-Methoxy-N-(3-oxo-7-(phenylamino)isoindolin-4-yl) benzamide], with 400 nM; and `COc1cccc(C(=O)Nc2ccc(Nc3ccccc3)c3c2C(=O)NC3)c1` [Example 434, 3-Methoxy-N-(3-oxo-7-(phenylamino)isoindolin-4-yl) benzamide], with 670 nM.
The same measure, in the same setting: for `CC(=O)Nc1ccc(C(=O)Nc2ccc(Nc3ccccc3)c3c2C(=O)NC3)cc1` [Example 435, 4-Acetamido-N-(3-oxo-7-(phenylamino)isoindolin-4-yl) benzamide] the value was 210 nM.
Same read-out and setting: then `Cc1cccc(Nc2ccc(NC(=O)c3ccccc3)c3c2CNC3=O)c1` [Example 436, N-(3-oxo-7-(m-tolylamino)isoindolin-4-yl)benzamide], with 590 nM; and `O=C(Nc1ccc(Nc2cc[nH]n2)c2c1C(=O)NC2)c1ccc(F)cc1` [Example 437], with 2900 nM.
Turning to `O=C(Nc1ccc(Nc2ccccc2)c2c1C(=O)NC2)c1ccc(NCCN2CCCC2)cc1` [Example 438, N-(3-oxo-7-(phenylamino)isoindolin-4-yl)-4-((2-(pyrrolidin-1-yl)ethyl)amino)benzamide], the IC50 is 160 nM.
On the same count and under the same terms, then `O=C(Nc1ccc(Nc2ccccc2)c2c1C(=O)NC2)c1ccc(NCCN2CCCCC2)cc1` [Example 439, N-(3-oxo-7-(phenylamino)isoindolin-4-yl)-4-((2-(piperidin-1-yl)ethyl)amino)benzamide], with 150 nM; and `CN(C)CCNc1ccc(C(=O)Nc2ccc(Nc3ccccc3)c3c2C(=O)NC3)cc1` [Example 441], with 240 nM.
Still for that read-out and setting: for `O=C(Nc1ccc(Nc2ccccc2)c2c1C(=O)NC2)c1ccc(NCCN2CCOCC2)cc1` [Example 442, 4-((2-Morpholinoethyl)amino)-N-(3-oxo-7-(phenylamino)isoindolin-4-yl)benzamide] the value was 150 nM; for `CN1CCN(CCNc2ccc(C(=O)Nc3ccc(Nc4ccccc4)c4c3C(=O)NC4)cc2)CC1` [Example 443, 4-((2-(4-Methylpiperazin-1-yl)ethyl)amino)-N-(3-oxo-7-(phenylamino)isoindolin-4-yl)benzamide], 120 nM; for `COCCNc1ccc(C(=O)Nc2ccc(Nc3ccccc3)c3c2C(=O)NC3)cc1` [Example 444, 4-((2-Methoxyethyl)amino)-N-(3-oxo-7-(phenylamino)isoindolin-4-yl)benzamide], 110 nM.
On the same count and under the same terms, then `COc1cccc(Nc2ccc(NC(=O)c3ccc(NCCN4CCCC4)cc3)c3c2CNC3=O)c1` [Example 445, N-(7-((3-methoxyphenyl)amino)-3-oxoisoindolin-4-yl)-4-((2-(pyrrolidin-1-yl)ethyl)amino)benzamide], with 550 nM.
